Values quoted from earlier work as cited in patent publication US20030152525A1, “Stable oral compositions comprising casein phosphopeptide complexes and fluoride” (The Procter & Gamble Company, priority 2002, published 2003).

Conditions: solutions containing 0.1% w/v peptide, various pH, calcium and phosphate concentrations, constant ionic strength; as discussed in WO 98/40406

For “Gln^59-Met-Glu-Ala-Glu-Ser(P)-Ile-Ser(P)-Ser(P)-Ser(P)-Glu-Glu-Ile-Val-Pro-Asn-Ser(P)-Val-Glu-Gln-Lys^79 [αs1 (59-79) [1]]”, the “calcium maximally bound per molecule of peptide” value is listed as 24 per molecule and the “phosphate maximally bound per molecule of peptide” value is listed as 16 per molecule.
